According to patent US11178874B2, “Articles comprising antioxidizing agents and bacteriostatic agents, and production processes thereof” (BENVIC SAS, priority 2016, dated 2021):

Test system: microorganisms usually present in the environment
Test: Counting of microorganisms on a growth plate after incubation (bacteriostatic effect of solutions)
Assay type: cell-based
Conditions: for cfu/plate: control 597 cfu; for Reduction % observed: vs control 597 cfu
Description: The counting of microorganisms was carried out on a growth plate, after the incubation period (as regards the type of microorganisms, they are microorganisms usually present in the environment). […] Then, the bacteriostatic effect was evaluated of:
a solution of selenium phloroglucinol (20 ppm of selenium, i.e. corresponding to 0.002% by weight);
three solutions of zinc PCA, with a concentration of zinc of 10 ppm, 20 ppm and 30 ppm respectively (i.e. respectively corresponding to 0.001%, 0.002% and 0.003% by weight).
In order to evaluate the synergic effect between zinc and antioxidizing agent, the tests indicated above were repeated, using three solutions separately, respectively containing: selenium 20 ppm+zinc 10 ppm; selenium 20 ppm+zinc 20 ppm; selenium 20 ppm+zinc 30 ppm.

O=C1CC[C@@H](C(=O)[O-])N1.O=C1CC[C@@H](C(=O)[O-])N1.[Zn+2] [Zinc]
cfu/plate (solution 10 ppm): 571 cfu/plate | Reduction % observed (solution 10 ppm): 5.1% | cfu/plate (solution 20 ppm): 550 cfu/plate | Reduction % observed (solution 20 ppm): 6.0% | cfu/plate (solution 30 ppm): 491 cfu/plate | Reduction % observed (solution 30 ppm): 17.1%
